Data from article PMC4472571 (Journal of neurochemistry, 2015).

Columns and labels:
Assay in all cases: two-electrode voltage clamp, CFTR current in oocytes
Format in all cases: cell-based
MOR263-3 [1] = molecular target: T1, MOR263-3 (Mus musculus, UniProt Q8VFQ2); details: agonist; 30 μM
T1 sequence (Q8VFQ2 1-330): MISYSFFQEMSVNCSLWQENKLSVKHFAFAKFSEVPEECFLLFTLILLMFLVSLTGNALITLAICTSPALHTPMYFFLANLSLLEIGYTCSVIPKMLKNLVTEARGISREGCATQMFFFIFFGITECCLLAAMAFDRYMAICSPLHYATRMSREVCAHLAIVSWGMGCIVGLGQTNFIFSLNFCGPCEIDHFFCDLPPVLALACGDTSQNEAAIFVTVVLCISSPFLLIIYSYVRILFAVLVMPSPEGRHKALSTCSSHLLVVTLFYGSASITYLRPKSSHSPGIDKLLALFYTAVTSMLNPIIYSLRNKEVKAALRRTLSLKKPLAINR

rhoMOR263-2 = molecular target: T2, rhoMOR263-2 (Mus musculus, UniProt Q9EPG4); details: agonist; 30 μM
T2 sequence (Q9EPG4 1-317): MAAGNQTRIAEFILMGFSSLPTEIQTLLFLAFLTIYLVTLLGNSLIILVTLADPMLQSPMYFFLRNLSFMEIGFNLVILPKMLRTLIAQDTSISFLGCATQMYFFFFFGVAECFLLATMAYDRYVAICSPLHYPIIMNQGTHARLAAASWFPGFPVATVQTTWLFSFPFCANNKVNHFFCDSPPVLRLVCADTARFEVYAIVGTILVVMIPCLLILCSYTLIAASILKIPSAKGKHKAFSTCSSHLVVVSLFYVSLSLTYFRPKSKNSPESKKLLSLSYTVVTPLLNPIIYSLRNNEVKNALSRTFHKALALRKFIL

MOR263-3 [2] = molecular target: T1, MOR263-3

Row | SMILES | two-electrode voltage clamp, CFTR current in oocytes (MOR263-3 [1]) | two-electrode voltage clamp, CFTR current in oocytes (rhoMOR263-2) | EC50 (MOR263-3 [2])
1 | CCCCC/C=C/C=C/C=O [trans,trans-2,4-decadienal] | MOR263-3 responded well to trans,trans-2,4-nonadienal, trans,trans-2,4-decadienal | MOR263-2 responded well to trans,trans-2,4-decadienal | 
2 | CCCC/C=C/C=C/C=O [trans,trans-2,4-nonadienal] | MOR263-3 responded well to trans,trans-2,4-nonadienal, trans,trans-2,4-decadienal |  | 
3 | CCC/C=C/C=C/C=O [trans,trans-2,4-octadienal] |  |  | 21 ± 6 µM
4 | CCCCCC/C=C/C=C/C=O [trans,trans-2,4-undecadienal] |  | MOR263-2 responded well to trans,trans-2,4-decadienal, trans,trans-2,4-undecadienal | 
5 | CCCCCCC/C=C/C=O [trans-2-decenal] |  | MOR263-2 responded well to trans,trans-2,4-decadienal, trans,trans-2,4-undecadienal, trans-2-decenal | 
6 | CCCCC/C=C/C=O [trans-2-octenal] | MOR263-3 responded well to trans,trans-2,4-nonadienal, trans,trans-2,4-decadienal, trans-2-octenal |  | 
